BindingDB's records for doi:10.7270/Q2RF5SF5 (Burnham Center For Chemical Genomics, 2008)

Target: Heat shock 70 kDa protein 1A (Homo sapiens, UniProt V9GZ37)
Experiment: small-molecule inhibition of Hsp70 – biochemical, TR-FRET (AID 786)

Heat shock 70 kDa protein 1A, sequence (V9GZ37 whole entry): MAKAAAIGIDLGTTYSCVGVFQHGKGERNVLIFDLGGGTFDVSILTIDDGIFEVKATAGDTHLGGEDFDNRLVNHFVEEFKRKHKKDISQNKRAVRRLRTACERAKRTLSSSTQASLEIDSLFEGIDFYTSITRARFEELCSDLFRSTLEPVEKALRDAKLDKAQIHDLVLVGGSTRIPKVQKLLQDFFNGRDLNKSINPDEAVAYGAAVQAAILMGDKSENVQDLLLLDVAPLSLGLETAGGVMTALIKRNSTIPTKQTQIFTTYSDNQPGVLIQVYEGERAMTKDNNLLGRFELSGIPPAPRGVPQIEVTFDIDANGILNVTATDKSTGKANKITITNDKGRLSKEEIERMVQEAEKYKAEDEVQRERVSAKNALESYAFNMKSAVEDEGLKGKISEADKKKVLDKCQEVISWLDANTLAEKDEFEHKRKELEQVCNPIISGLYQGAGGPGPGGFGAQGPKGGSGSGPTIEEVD

SMILES	IC50 [µM]
CC(=O)N1CCC2(CC1)c1c(n[nH]c1C)OC(=N)C2C#N (configuration not stated) [6-azanyl-1'-ethanoyl-3-methyl-spiro[2H-pyrano[2,3-c]pyrazole-4,4'-piperidine]-5-carbonitrile]	> 100
C=c1[nH]n(-c2cccc(C(=O)O)c2)c(=O)c1=CC=Cc1ccco1 [SMR000113614]	17.4
